The record followed here is ChEMBL document CHEMBL1201862, “PubChem BioAssay data set” (2004).

Broadly, the GI50 is the concentration giving 50% growth inhibition.

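Briefly, cells in 96-well plates were exposed to five compound concentrations for 48 h, and endpoints were estimated by linear interpolation. The concentration for 50% growth inhibition is given as GI50.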 Active and inactive are the calls of the source. No stated cut-off is given here; in the data, active = GI50 up to about 1.1 µM and inactive = higher.

Among the test systems are 786-0; A549; ACHN; BT-549; CCRF-CEM; DU-145; HCT-116; HL-60; IGROV-1; MCF7; OVCAR-3; OVCAR-4; PC-3; SF-268; SF-295; SK-OV-3; SN12C; SNB-19; SW-620; U-251.
Common to all, as to experiment: DTP human tumour cell line panel, 48 h

On to `CC(=O)OC1COC(n2c(-c3ccc(Cl)cc3)cc(-c3ccccc3)c(C#N)c2=S)C(OC(C)=O)C1OC(C)=O` (stereo not given), for which the GI50 is 12.5 µM (inactive) with 786-0; 13.4 µM (inactive) in the test on A549; 17.5 µM (inactive) with ACHN; 2.06 µM (inactive) in the test on BT-549; 31.8 µM (inactive) in the test with CCRF-CEM; 13.9 µM (inactive) in the test with DU-145. In addition, the GI50 with HCT-116 is 5.52 µM (inactive); in the test on HL-60, 37.7 µM (inactive); with IGROV-1, 18.2 µM (inactive); in the test on MCF7, 8.43 µM (inactive); in the test on OVCAR-3, 6.38 µM (inactive); in the test with OVCAR-4, 2.92 µM (inactive). The GI50 is 14.5 µM (inactive) in the test with PC-3; 9.44 µM (inactive) in the test with SF-268; 14.7 µM (inactive) in the test with SF-295; 28.2 µM (inactive) in the test with SK-OV-3; 9.25 µM (inactive) with SN12C; 31 µM (inactive) in the test with SNB-19. Besides, the GI50 in the test on SW-620 was 41.1 µM (inactive); in the test with U-251, 3.78 µM (inactive).

As to `Cc1c(C#N)c2nnn(-c3cccc(Cl)c3)c(=O)n2c1-c1ccccc1`, the GI50 was 2.99 µM (inactive) in the test on 786-0; 4.5 µM (inactive) in the test on A549; 6.4 µM (inactive) in the test with ACHN; 18.1 µM (inactive) with BT-549; 3.66 µM (inactive) in the test with CCRF-CEM; 3.46 µM (inactive) in the test with DU-145. In addition, the GI50 with HCT-116 is 2.03 µM (inactive); with HL-60, 3.28 µM (inactive); with IGROV-1, 2.54 µM (inactive); in the test on MCF7, 4.02 µM (inactive); in the test on OVCAR-3 it was 1.65 µM (inactive); with OVCAR-4, 8.61 µM (inactive). Besides, the concentration for 50% growth inhibition (GI50) in the test with PC-3 was 0.875 µM (active); in the test on SF-268, 6.81 µM (inactive); in the test on SF-295, 1.45 µM (inactive); with SK-OV-3, 3.08 µM (inactive); with SN12C, 3.83 µM (inactive); in the test on SNB-19, 10.3 µM (inactive). The values for the GI50 in the test on SW-620 and with U-251 were 4.3 µM (inactive) and 2.33 µM (inactive), respectively.

Take `C=C(C)[C@@H]1CC[C@]2(C(=O)OC3OC(COC4OC(CO)C(OC5OC(C)C(O)C(O)C5O)C(O)C4O)C(O)C(O)C3O)CC[C@]3(C)[C@H](CC[C@@H]4[C@@]5(C)CC[C@H](O)[C@@](C)(CO)[C@@H]5CC[C@]43C)[C@@H]12` (stereo not given in full): the GI50 in the test with 786-0 was 3.98 µM (inactive); with A549, 0.986 µM (active); in the test on ACHN, 2 µM (inactive); in the test with BT-549, 3.06 µM (inactive); in the test on CCRF-CEM it was 0.043 µM (active); with DU-145, 4.8 µM (inactive). The GI50 with HCT-116 was 2.18 µM (inactive); with HL-60, 0.0986 µM (active); with IGROV-1, 2.74 µM (inactive); with MCF7, 3.02 µM (inactive); in the test on OVCAR-3 it was 1.84 µM (inactive); in the test with OVCAR-4, 3.44 µM (inactive). Besides, the GI50 is 2.6 µM (inactive) in the test with PC-3; 2.93 µM (inactive) with SF-268; 1.27 µM (inactive) with SF-295; 3.24 µM (inactive) in the test with SK-OV-3; 3.5 µM (inactive) in the test on SN12C; 2.72 µM (inactive) in the test with SNB-19. Moreover, the GI50 in the test with SW-620 is 2.16 µM (inactive); in the test with U-251, 1.64 µM (inactive).

For `O=C1Nc2ccc(Br)cc2/C1=N/c1ccc2c(c1)OCO2`, the GI50 with 786-0 is 21.6 µM (inactive); in the test with A549, 46.8 µM (inactive); in the test on ACHN it was 23.7 µM (inactive); in the test on BT-549 it was 19.8 µM (inactive); in the test with CCRF-CEM it was 14.7 µM (inactive); with DU-145, 34 µM (inactive). In addition, the GI50 in the test on HCT-116 is 17.4 µM (inactive); in the test with HL-60, 13.2 µM (inactive); in the test on IGROV-1 it was 27.4 µM (inactive); with MCF7, 16.7 µM (inactive); in the test with OVCAR-3, 22.1 µM (inactive); with OVCAR-4, 3.72 µM (inactive). Also, the GI50 was 16.3 µM (inactive) in the test with PC-3; 35.2 µM (inactive) with SF-268; 24.8 µM (inactive) in the test on SF-295; 31.8 µM (inactive) in the test on SK-OV-3; 19 µM (inactive) in the test on SN12C; 74.5 µM (inactive) in the test on SNB-19. For the same molecule, the figures for the GI50 in the test with SW-620 and in the test with U-251 were 22.4 µM (inactive) and 12.7 µM (inactive), respectively.
